Results taken from BindingDB's records for doi:10.7270/Q2N58K09 (The Scripps Research Institute Molecular Screening Center, 2013).
pIC50: −log10 of the molar value.

What follows are molecules tested against Huntingtin (Homo sapiens, UniProt P42858).
Huntingtin, sequence (P42858 whole entry): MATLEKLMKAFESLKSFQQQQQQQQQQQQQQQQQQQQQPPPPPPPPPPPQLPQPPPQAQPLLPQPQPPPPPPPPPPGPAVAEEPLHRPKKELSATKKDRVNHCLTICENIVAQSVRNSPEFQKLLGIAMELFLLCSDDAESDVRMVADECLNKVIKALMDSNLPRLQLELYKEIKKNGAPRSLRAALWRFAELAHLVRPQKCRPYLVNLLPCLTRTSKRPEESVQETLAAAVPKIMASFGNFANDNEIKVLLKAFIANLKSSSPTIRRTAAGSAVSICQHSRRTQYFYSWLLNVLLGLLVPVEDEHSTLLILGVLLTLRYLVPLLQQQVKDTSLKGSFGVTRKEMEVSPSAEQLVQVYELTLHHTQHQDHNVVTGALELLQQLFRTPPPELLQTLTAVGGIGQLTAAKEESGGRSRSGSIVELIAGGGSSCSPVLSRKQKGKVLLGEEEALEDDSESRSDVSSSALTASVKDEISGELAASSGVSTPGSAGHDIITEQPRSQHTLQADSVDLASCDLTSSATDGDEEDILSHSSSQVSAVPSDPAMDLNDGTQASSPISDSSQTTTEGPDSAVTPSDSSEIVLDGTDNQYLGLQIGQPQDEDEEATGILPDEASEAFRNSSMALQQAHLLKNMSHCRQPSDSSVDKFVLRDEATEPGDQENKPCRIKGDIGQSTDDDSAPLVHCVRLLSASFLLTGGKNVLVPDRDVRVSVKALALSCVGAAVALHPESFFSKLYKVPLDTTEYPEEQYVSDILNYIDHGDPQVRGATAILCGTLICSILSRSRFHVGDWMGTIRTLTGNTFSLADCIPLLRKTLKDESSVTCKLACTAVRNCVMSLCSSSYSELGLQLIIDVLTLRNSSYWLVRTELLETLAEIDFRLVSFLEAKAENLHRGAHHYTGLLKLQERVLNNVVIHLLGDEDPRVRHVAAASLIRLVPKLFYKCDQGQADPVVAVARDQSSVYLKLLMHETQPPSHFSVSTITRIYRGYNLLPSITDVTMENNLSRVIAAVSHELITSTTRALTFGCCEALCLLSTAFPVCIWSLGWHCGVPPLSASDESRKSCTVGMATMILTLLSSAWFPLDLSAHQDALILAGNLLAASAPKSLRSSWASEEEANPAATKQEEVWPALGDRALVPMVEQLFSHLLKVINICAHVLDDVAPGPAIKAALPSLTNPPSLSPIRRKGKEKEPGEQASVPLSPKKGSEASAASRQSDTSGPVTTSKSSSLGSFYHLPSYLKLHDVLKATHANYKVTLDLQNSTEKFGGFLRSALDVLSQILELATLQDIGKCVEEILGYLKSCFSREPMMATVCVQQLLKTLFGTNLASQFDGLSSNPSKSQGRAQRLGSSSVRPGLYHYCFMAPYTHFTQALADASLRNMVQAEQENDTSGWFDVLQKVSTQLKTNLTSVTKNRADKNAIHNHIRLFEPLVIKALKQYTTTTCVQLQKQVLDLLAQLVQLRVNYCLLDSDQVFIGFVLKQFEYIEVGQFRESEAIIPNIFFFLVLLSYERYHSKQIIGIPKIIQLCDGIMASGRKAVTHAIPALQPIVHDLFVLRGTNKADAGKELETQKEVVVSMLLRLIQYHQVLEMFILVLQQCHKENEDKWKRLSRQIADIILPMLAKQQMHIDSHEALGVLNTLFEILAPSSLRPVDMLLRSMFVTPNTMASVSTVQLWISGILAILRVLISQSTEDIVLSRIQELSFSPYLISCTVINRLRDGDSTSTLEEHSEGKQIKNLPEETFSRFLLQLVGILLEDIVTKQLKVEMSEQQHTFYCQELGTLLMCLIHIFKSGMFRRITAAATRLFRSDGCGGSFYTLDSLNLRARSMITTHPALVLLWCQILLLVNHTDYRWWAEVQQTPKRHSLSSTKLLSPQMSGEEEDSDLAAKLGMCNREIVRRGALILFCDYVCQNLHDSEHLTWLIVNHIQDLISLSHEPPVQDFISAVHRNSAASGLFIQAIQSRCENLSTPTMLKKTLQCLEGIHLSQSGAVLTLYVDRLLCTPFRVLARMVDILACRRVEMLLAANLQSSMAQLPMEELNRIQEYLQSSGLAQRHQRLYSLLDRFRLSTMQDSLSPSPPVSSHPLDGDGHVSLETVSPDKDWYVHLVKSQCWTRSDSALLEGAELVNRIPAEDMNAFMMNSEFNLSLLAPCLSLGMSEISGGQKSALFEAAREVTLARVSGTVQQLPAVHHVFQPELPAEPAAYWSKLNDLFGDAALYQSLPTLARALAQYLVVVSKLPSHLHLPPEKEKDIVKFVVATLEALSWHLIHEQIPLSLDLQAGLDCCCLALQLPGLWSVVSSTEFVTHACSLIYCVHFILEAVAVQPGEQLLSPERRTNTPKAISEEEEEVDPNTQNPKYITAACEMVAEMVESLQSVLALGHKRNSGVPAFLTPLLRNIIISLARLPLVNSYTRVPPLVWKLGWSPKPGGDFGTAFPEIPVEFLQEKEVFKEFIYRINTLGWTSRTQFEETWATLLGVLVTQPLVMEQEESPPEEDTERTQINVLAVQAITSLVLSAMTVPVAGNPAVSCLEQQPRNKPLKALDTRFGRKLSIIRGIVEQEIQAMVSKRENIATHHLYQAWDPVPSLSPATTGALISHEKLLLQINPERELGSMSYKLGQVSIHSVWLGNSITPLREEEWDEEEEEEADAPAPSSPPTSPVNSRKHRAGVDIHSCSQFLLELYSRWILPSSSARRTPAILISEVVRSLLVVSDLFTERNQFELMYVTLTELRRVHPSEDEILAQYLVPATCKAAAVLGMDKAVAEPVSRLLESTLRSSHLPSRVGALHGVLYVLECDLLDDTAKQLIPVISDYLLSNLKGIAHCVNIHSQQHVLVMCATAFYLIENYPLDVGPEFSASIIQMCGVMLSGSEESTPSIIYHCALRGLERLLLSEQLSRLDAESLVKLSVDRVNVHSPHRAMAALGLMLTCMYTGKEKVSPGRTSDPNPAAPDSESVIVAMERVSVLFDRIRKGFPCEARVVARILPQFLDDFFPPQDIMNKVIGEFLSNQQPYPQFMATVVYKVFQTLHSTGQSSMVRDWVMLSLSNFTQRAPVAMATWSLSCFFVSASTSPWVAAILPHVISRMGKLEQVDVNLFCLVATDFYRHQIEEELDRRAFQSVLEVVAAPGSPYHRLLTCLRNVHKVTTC

Row | Structure (SMILES) | pIC50
1 | CC(=NNC(=N)Sc1cc(O)n(-c2cccc(Cl)c2)c1O)c1cccs1 [MLS000579124] | 5.29
2 | CC(C)c1ccc(C2c3[nH]c4ccccc4c3Cc3c(O)n(-c4ccccc4C(=O)N4CCC[C@@H]4C(=O)O)c(=O)n32)cc1 (stereo partly specified) | 5.55
3 | CC(=O)C1C(=O)C(=O)N(c2cc(C(C)(C)C)on2)C1c1ccc(Br)cc1 (stereo unspecified) | 5.60
4 | Cc1[nH]n(C(N)=S)c(=O)c1N=Nc1c(Br)cc(Br)cc1Br [3-methyl-5-oxo-4-[(2,4,6-tribromophenyl)diazenyl]-4H-pyrazole-1-carbothioamide] | 5.24
5 | CCCOc1cccc(C2C(C(=O)c3ccc(C)o3)C(=O)C(=O)N2c2nc(C)c(C(C)=O)s2)c1 (stereo unspecified) | 5.39
6 | O=C1C(=O)N(c2nc3ccc(Cl)cc3s2)C(c2ccco2)C1C(=O)c1ccco1 (stereo unspecified) | 6.01
7 | CCOC(=O)C1=C(C)N=C(SCc2cc(=O)[nH][nH]2)C(C#N)C1c1cccs1 (stereo unspecified) [5-cyano-2-methyl-6-[(5-oxo-1,2-dihydropyrazol-3-yl)methylthio]-4-thiophen-2-yl-1,4-dihydropyridine-3-carboxylic acid ethyl ester] | 5.13
8 | C=CCOc1c(OC)cc(CN=Nc2cccc(C(=O)O)c2)c(Br)c1Br | 5.64
9 | Cc1cc(N2C(=O)C(=O)C(C(=O)c3cc4ccccc4o3)C2c2cccc(Cl)c2)no1 (stereo unspecified) [3-(1-benzofuran-2-ylcarbonyl)-2-(3-chlorophenyl)-1-(5-methyl-1,2-oxazol-3-yl)-4-oxidanyl-2H-pyrrol-5-one] | 5.92
10 | N#CC1=c2sc(=Cc3ccco3)c(=O)n2C(=N)C(C#N)C1c1ccco1 (stereo unspecified) [5-amino-7-(furan-2-yl)-2-(furan-2-ylmethylidene)-3-oxo-7H-[1,3]thiazolo[3,2-a]pyridine-6,8-dicarbonitrile] | 5.27
11 | Cc1ccc2nc(N3C(=O)C(=O)C(C(=O)c4ccco4)C3c3ccc(C)o3)sc2c1 (stereo unspecified) [3-[2-furanyl(oxo)methyl]-4-hydroxy-1-(6-methyl-1,3-benzothiazol-2-yl)-2-(5-methyl-2-furanyl)-2H-pyrrol-5-one;oxalic acid] | 6.20
12 | N#CC(C#N)C(=Nc1ccc(F)cc1)SCc1cccc(Br)c1 [2-[(3-bromophenyl)methylsulfanyl-[(4-fluorophenyl)amino]methylidene]propanedinitrile] | 5.12
13 | COc1ccc2nc(N3C(=O)C(=O)C(C(=O)c4ccco4)C3c3ccc(OC)c(OC)c3)sc2c1 (stereo unspecified) [2-(3,4-dimethoxyphenyl)-3-(furan-2-carbonyl)-4-hydroxy-1-(6-methoxy-1,3-benzothiazol-2-yl)-2H-pyrrol-5-one] | 5.69
14 | CCN(CC)C(=O)NC1CC2CCCC(C1)N2Cc1ccccc1 (stereo unspecified) [1,1-diethyl-3-[9-(phenylmethyl)-9-azabicyclo[3.3.1]nonan-3-yl]urea] | 5.55
15 | N#CC(C(=O)Nc1ccc(Cl)cc1)C(=S)Nc1ccccc1 (stereo unspecified) [(Z)-3-anilino-N-(4-chlorophenyl)-2-cyano-3-sulfanylprop-2-enamide] | 5.21
16 | CCCOc1ccc(-n2c(O)cc(SC(=N)NN=C(C)c3cccs3)c2O)cc1 [2,5-dioxo-1-(4-propoxyphenyl)-3-pyrrolidinyl 2-[1-(2-thienyl)ethylidene]hydrazinecarbimidothioate] | 5.11
17 | Cc1ccc2c(c1)C(=NNc1cccc(C(=O)O)c1)C(=O)N2C [3-[(2Z)-2-(1,5-dimethyl-2-oxidanylidene-indol-3-ylidene)hydrazinyl]benzoic acid] | 5.30
18 | CC(C)c1ccc(C2c3[nH]c4ccccc4c3Cc3c(O)n(-c4ccccc4C(=O)N4CCC[C@H]4C(=O)O)c(=O)n32)cc1 (stereo partly specified) | 5.47

Other lines, results leading:

Row | pIC50 | Structure (SMILES)
19 | 5.72 | CCc1nnc(NS(=O)(=O)c2ccc(N=CCC(=O)c3ccc(C)cc3)cc2)s1 [SMR000211931]
20 | 6.20 | COC(=O)c1sc(N2C(=O)C(=O)C(C(=O)c3ccc(C)o3)C2c2ccc([N+](=O)[O-])cc2)nc1C (stereo unspecified) [methyl 2-[4-hydroxy-3-(5-methylfuran-2-carbonyl)-2-(4-nitrophenyl)-5-oxo-2H-pyrrol-1-yl]-4-methyl-1,3-thiazole-5-carboxylate]
21 | 5.59 | C=c1c(C#N)c2[nH]c(N)c(C#N)c(C)c-2c1=Cc1ccc(-c2ccccc2C(=O)O)o1 [SMR000277284]
22 | 5.08 | N=C(NN=Cc1cccs1)Sc1cc(O)n(-c2ccc(Br)cc2)c1O [[1-(4-bromophenyl)-2,5-dioxopyrrolidin-3-yl] N'-[(E)-thiophen-2-ylmethylideneamino]carbamimidothioate]
23 | 5.54 | COC1=CC(=Cc2c(-c3ccccc3)[nH]n(-c3ccc(NC(C)=O)cc3)c2=O)C=CC1=O [SMR000299432]
24 | 5.54 | O=C(O)c1ccc(-n2c(O)cc(SC(=Nc3ccc(F)cc3)NCc3ccc4c(c3)OCO4)c2O)cc1 [SMR000313486]
25 | 5.60 | Oc1ccc(CN=Nc2ccnc3cc(Cl)ccc23)c(O)c1O [SMR000590557]
26 | 5.83 | N#CC1C(=O)NC(c2ccc(-c3cc(Cl)ccc3Cl)o2)N(c2ccccc2)C1=S (stereo unspecified) [MLS000592167]
